Experimental data reported in EP3822285A1, “VARIANT NISIN PEPTIDES” (University College Cork-National University of Ireland, Cork, priority 2019, dated 2021).
In brackets after ≈: the same amount, converted by molar mass. Several values for one entry are separate records, joined by “and”; a condition that tells them apart may be missing. Equal values may be shown once. Marks after values point to notes of the source that are not given here.

Columns and labels:
Format in all cases: cell-based
[1] = tested on: Thermus scotoductus SE-1; assay: Agar diffusion assay with cell free supernatant of producing strains; conditions: zone diameter relative to Nisin A wild type (100)
Experimental: (§1) Agar diffusion assays were carried out in triplicate using nisin producing and indicator (T. thermophilus HB27 and T. scotoductus Se-1) strains. Both the producer and indicator strains were cultured as per conditions described above. One ml of overnight culture of indicators were added to 50ml of molten Castenholz agar, briefly swirled and poured. Wells were made using sterile glass pipette. To generate cell free supernatant from nisin producing strains, 10 mls of overnight cultures of the strains were centrifuged at 950g for 20 mins. The cell free supernatant was transferred to a sterile tube. 50 µl of cell free supernatant was added to wells described above. Plates were incubated at 55°C for 3 days and the zone of clearance measured.
(§2) The cell free supernatant of nisin A and nisin variant producing L. lactis was used to determine the bioactivity of these lantibiotics against T. thermophilus HB27 and T. scotoductus SE-1 using agar diffusion assays, with the zone of clearance representing the bioactivity of the producing strain (i.e., representing a combination of the amount of the peptide produced and the specific activity of that peptide). […] Among the variants tested were those with altered N-terminal domains. The N-terminal domain of nisin is important for binding with the pyrophosphate moiety of lipid II to mediate pore formation in the cell membrane. Lysine (K) at position 12, which serves as a small flexible region between ring B and C, and is one of among the 5 positively charged residues (K12, K22, K34, H27, […]) of nisin A that contributes to its cationic nature and its attraction to the cell envelope.

[2] = tested on: Thermus thermophilus HB27; assay: as above; conditions: zone diameter relative to Nisin A wild type (100)
Experimental: as §1, §2

[3] = tested on: T. scotoductus SE-1; assay: Minimum inhibitory concentration assay (Thermus); conditions: for MIC: pure peptide, mean of triplicate assays
Experimental: (§3) Minimum inhibitory concentration (MIC) determinations for gram negative Thermus strains were carried out in triplicate in round bottom microtitre plates (Corning). 96 well microtitre plates were pre-treated with bovine serum albumin (BSA) prior to addition of the peptides. Briefly, to each well of the microtire plates 200 µl of d.H2O (filtered with 0.2 µm filter) containing 1% (w/w) BSA was added and incubated at 37°C for 30 mins. The wells were washed with 200 µl of IX phosphate buffered saline (PBS) for 2 times after removing 1% BSA d.H2O. 100 µl of growth media, i.e., Castenholz, was added to each well. […] Target strains were grown overnight as per conditions mention above, 0.5 ml of overnight was subcultured in to 10 mls of fresh Castenholz medium and allowed to grow to an OD600 of ∼0.5. 20µl of this subculture was added to 980µl of media, 150µl of this dilution added to 14.85 ml of growth media. 100µl of this dilution added to each well resulting in a final inoculum of ∼10^5 cfu/ml in 200µl. The plates were incubated at 55° C for 3 days and the MIC was determined as the lowest concentration at which no growth was visible.
(§4) The bioactivity of cell-free supernatant can be influenced by altered diffusion rates, solubility, production or specific activity. To determine to what extent, if any, the bioactivity noted above is due to increased specific activity, nisin A (control) and the derivatives were purified and their molecular weights confirmed by MALDI TOF mass spectrometry (Table: 6) (Figure: 4). These peptides were used to perform minimum inhibitory concentration assays against six Thermus strains, i.e., T. thermophilus HB27, T. scotoductus SE-1, T. rehai, T. oshimai, T. aquaticus and T. brockianus.

[4] = tested on: T. rehai; assay: Minimum inhibitory concentration assay (Thermus); conditions: for MIC: pure peptide, mean of triplicate assays
Experimental: as §3, §4

[5] = tested on: T. brockianus; assay: Minimum inhibitory concentration assay (Thermus); conditions: pure peptide, mean of triplicate assays
Experimental: as §3, §4

[6] = tested on: T. aquaticus; assay: Minimum inhibitory concentration assay (Thermus); conditions: for MIC: pure peptide, mean of triplicate assays
Experimental: as §3, §4

[7] = tested on: T. oshimai; assay: Minimum inhibitory concentration assay (Thermus); conditions: for MIC: pure peptide, mean of triplicate assays
Experimental: as §3, §4

[8] = tested on: T. thermophilus HB27; assay: Minimum inhibitory concentration assay (Thermus); conditions: for MIC: pure peptide, mean of triplicate assays
Experimental: as §3, §4

| SMILES | % of wild type [1] | % difference [2] | MIC [3] | MIC [4] | MIC [5] | MIC [6] | MIC [7] | MIC [8] | fold better activity than nisin A [3] | fold better activity than nisin A [4] | fold better activity than nisin A [8] | fold better activity than nisin A [6] | fold better activity than nisin A [7] |
| --- | --- | --- | --- | --- | --- | --- | --- | --- | --- | --- | --- | --- | --- |
| C=C(NC(=O)[C@@H](NC(=O)[C@H](Cc1c[nH]cn1)NC(=O)[C@@H](NC(=O)[C@H](CO)NC(=O)[C@@H]1CS[C@@H](C)[C@H]2NC(=O)[C@H](C)NC(=O)[C@H](NC(=O)[C@H](CCCCN)NC(=O)[C@H](CCSC)NC(=O)[C@H](CC(N)=O)NC(=O)[C@@H]3CS[C@@H](C)[C@@H](NC(=O)[C@H](CCSC)NC(=O)[C@@H]4CS[C@@H](C)[C@@H](NC(=O)[C@@H]5CSC[C@@H](NC(=O)/C(=C/C)NC(=O)[C@@H](N)[C@@H](C)CC)C(=O)N[C@@H]([C@@H](C)CC)C(=O)NC(=C)C(=O)N[C@@H](CC(C)C)C(=O)N5)C(=O)N5CCC[C@H]5C(=O)NCC(=O)N4)C(=O)NCC(=O)N[C@@H](C)C(=O)N[C@@H](CC(C)C)C(=O)N[C@@H](CCSC)C(=O)NCC(=O)N3)[C@H](C)SC[C@H](NC2=O)C(=O)N[C@@H](Cc2c[nH]cn2)C(=O)N1)[C@@H](C)CC)C(C)C)C(=O)N[C@@H](CCCCN)C(=O)O [K12M] | 118% | 118% | 0.125 µM (≈ 0.42 µg/mL) | 0.0078 µM (≈ 0.0262 µg/mL) | 0.0625 µM (≈ 0.21 µg/mL) | 0.0156 µM (≈ 0.0524 µg/mL) | 0.0156 µM (≈ 0.0524 µg/mL) | 0.0156 µM (≈ 0.0524 µg/mL) | – | – | – | – | – |
| C=C(NC(=O)[C@@H](NC(=O)[C@H](Cc1c[nH]cn1)NC(=O)[C@@H](NC(=O)[C@H](CO)NC(=O)[C@@H]1CS[C@@H](C)[C@H]2NC(=O)[C@H](C)NC(=O)[C@H](NC(=O)[C@H](CCCCN)NC(=O)[C@H](CCSC)NC(=O)[C@@H]3CCCN3C(=O)[C@@H]3CS[C@@H](C)[C@@H](NC(=O)[C@H](CCCCN)NC(=O)[C@@H]4CS[C@@H](C)[C@@H](NC(=O)[C@@H]5CSC[C@@H](NC(=O)/C(=C/C)NC(=O)[C@@H](N)[C@@H](C)CC)C(=O)N[C@@H]([C@@H](C)CC)C(=O)NC(=C)C(=O)N[C@@H](CC(C)C)C(=O)N5)C(=O)N5CCC[C@H]5C(=O)NCC(=O)N4)C(=O)NCC(=O)N[C@@H](C)C(=O)N[C@@H](CC(C)C)C(=O)N[C@@H](CCSC)C(=O)NCC(=O)N3)[C@H](C)SC[C@H](NC2=O)C(=O)N[C@@H](Cc2c[nH]cn2)C(=O)N1)[C@@H](C)CC)C(C)C)C(=O)N[C@@H](CCCCN)C(=O)O [N20P] | 115% | 97% | 0.125 µM (≈ 0.417 µg/mL) | 0.0625 µM (≈ 0.209 µg/mL) | 0.0625 µM (≈ 0.209 µg/mL) | 0.0156 µM (≈ 0.0521 µg/mL) | 0.0625 µM (≈ 0.209 µg/mL) | 0.0156 µM (≈ 0.0521 µg/mL) | – | – | – | – | – |
| C=C(NC(=O)[C@@H](NC(=O)[C@H](Cc1c[nH]cn1)NC(=O)[C@@H](NC(=O)[C@H](CO)NC(=O)[C@@H]1CS[C@@H](C)[C@H]2NC(=O)[C@H](C)NC(=O)[C@H](NC(=O)[C@H](CCCCN)NC(=O)[C@H](CCSC)NC(=O)[C@H](CO)NC(=O)[C@@H]3CS[C@@H](C)[C@@H](NC(=O)[C@H](CCCCN)NC(=O)[C@@H]4CS[C@@H](C)[C@@H](NC(=O)[C@@H]5CSC[C@@H](NC(=O)/C(=C/C)NC(=O)[C@@H](N)[C@@H](C)CC)C(=O)N[C@@H]([C@@H](C)CC)C(=O)NC(=C)C(=O)N[C@@H](CC(C)C)C(=O)N5)C(=O)N5CCC[C@H]5C(=O)NCC(=O)N4)C(=O)NCC(=O)N[C@@H](C)C(=O)N[C@@H](CC(C)C)C(=O)N[C@@H](CCSC)C(=O)NCC(=O)N3)[C@H](C)SC[C@H](NC2=O)C(=O)N[C@@H](Cc2c[nH]cn2)C(=O)N1)[C@@H](C)CC)C(C)C)C(=O)N[C@@H](CCCCN)C(=O)O [N20S] | 112% | 119% | 0.3125 µM (≈ 1.04 µg/mL) | 0.00195 µM (≈ 0.00649 µg/mL) | 0.0156 µM (≈ 0.0519 µg/mL) | 0.0078 µM (≈ 0.026 µg/mL) | 0.000975 µM (≈ 0.00324 µg/mL) | 0.0039 µM (≈ 0.013 µg/mL) | – | – | – | – | – |
| C=C(NC(=O)[C@@H](NC(=O)[C@H](Cc1c[nH]cn1)NC(=O)[C@@H](NC(=O)[C@H](CO)NC(=O)[C@@H]1CS[C@@H](C)[C@H]2NC(=O)[C@H](C)NC(=O)[C@H](NC(=O)[C@H](CCCCN)NC(=O)[C@H](CCSC)NC(=O)[C@H](CC(N)=O)NC(=O)[C@@H]3CS[C@@H](C)[C@@H](NC(=O)[C@@H](NC(=O)[C@@H]4CS[C@@H](C)[C@@H](NC(=O)[C@@H]5CSC[C@@H](NC(=O)/C(=C/C)NC(=O)[C@@H](N)[C@@H](C)CC)C(=O)N[C@@H]([C@@H](C)CC)C(=O)NC(=C)C(=O)N[C@@H](CC(C)C)C(=O)N5)C(=O)N5CCC[C@H]5C(=O)NCC(=O)N4)C(C)C)C(=O)NCC(=O)N[C@@H](C)C(=O)N[C@@H](CC(C)C)C(=O)N[C@@H](CCSC)C(=O)NCC(=O)N3)[C@H](C)SC[C@H](NC2=O)C(=O)N[C@@H](Cc2c[nH]cn2)C(=O)N1)[C@@H](C)CC)C(C)C)C(=O)N[C@@H](CCCCN)C(=O)O [K12V] | 125* (0.04) % | 145* (0.004) % | 103.9 µg/L and 0.0312 µM | 0.0039 µM (≈ 0.013 µg/mL) | 0.0156 µM (≈ 0.0519 µg/mL) | 0.0156 µM (≈ 0.0519 µg/mL) | 0.0156 µM (≈ 0.0519 µg/mL) | 12.9 µg/L and 0.0039 µM | 2 fold | 2 fold | 2 fold | – | – |
| C=C(NC(=O)[C@@H](NC(=O)[C@H](Cc1c[nH]cn1)NC(=O)[C@@H](NC(=O)[C@H](CO)NC(=O)[C@@H]1CS[C@@H](C)[C@H]2NC(=O)[C@H](C)NC(=O)[C@H](NC(=O)[C@H](CCCCN)NC(=O)[C@H](Cc3ccc(O)cc3)NC(=O)[C@H](CC(N)=O)NC(=O)[C@@H]3CS[C@@H](C)[C@@H](NC(=O)[C@H](CCCCN)NC(=O)[C@@H]4CS[C@@H](C)[C@@H](NC(=O)[C@@H]5CSC[C@@H](NC(=O)/C(=C/C)NC(=O)[C@@H](N)[C@@H](C)CC)C(=O)N[C@@H]([C@@H](C)CC)C(=O)NC(=C)C(=O)N[C@@H](CC(C)C)C(=O)N5)C(=O)N5CCC[C@H]5C(=O)NCC(=O)N4)C(=O)NCC(=O)N[C@@H](C)C(=O)N[C@@H](CC(C)C)C(=O)N[C@@H](CCSC)C(=O)NCC(=O)N3)[C@H](C)SC[C@H](NC2=O)C(=O)N[C@@H](Cc2c[nH]cn2)C(=O)N1)[C@@H](C)CC)C(C)C)C(=O)N[C@@H](CCCCN)C(=O)O [M21Y] | 115% | 115% | 0.0625 µM (≈ 0.212 µg/mL) | 13.2 µg/L and 0.0039 µM | 0.0312 µM (≈ 0.106 µg/mL) | 6.6 µg/L and 0.00195 µM | 13.2 µg/L and 0.0039 µM | 13.2 µg/L and 0.0039 µM | – | – | two-fold | – | – |
| C=C(NC(=O)[C@@H](NC(=O)[C@H](Cc1c[nH]cn1)NC(=O)[C@@H](NC(=O)[C@H](CO)NC(=O)[C@@H]1CS[C@@H](C)[C@H]2NC(=O)[C@H](C)NC(=O)[C@H](NC(=O)[C@H](CCCCN)NC(=O)[C@H](CCSC)NC(=O)[C@H](CC(N)=O)NC(=O)[C@@H]3CS[C@@H](C)[C@@H](NC(=O)[C@H](CCCCN)NC(=O)[C@@H]4CS[C@@H](C)[C@@H](NC(=O)[C@@H]5CSC[C@@H](NC(=O)/C(=C/C)NC(=O)[C@@H](N)[C@@H](C)CC)C(=O)N[C@@H]([C@@H](C)CC)C(=O)NC(=C)C(=O)N[C@@H](CC(C)C)C(=O)N5)C(=O)N5CCC[C@H]5C(=O)NCC(=O)N4)C(=O)NCC(=O)N[C@@H](C)C(=O)N[C@@H](CC(C)C)C(=O)N[C@@H](CCSC)C(=O)NCC(=O)N3)[C@H](C)SC[C@H](NC2=O)C(=O)N[C@@H](CCC(N)=O)C(=O)N1)[C@@H](C)CC)C(C)C)C(=O)N[C@@H](CCCCN)C(=O)O [H27Q] | 115% | 136* (0.031) % | 0.0625 µM (≈ 0.209 µg/mL) | 3.2 µg/L and 0.000975 µM | 0.0156 µM (≈ 0.0522 µg/mL) | 3.26 µg/L and 0.000975 µM | 3.2 µg/L and 0.000975 µM | 3.2 µg/L and 0.000975 µM | – | 8 fold | 8 fold | 14 fold | 8 fold |
